{"source": "patent US7404945B2", "about": "“Method of evaluating pharmacological effects of medicine” (Tokyo Gas Company Limited, priority 2002, dated 2008)", "format_in_all_cases": "in vivo", "key": {"pancreatic protease": {"test_system": "pancreatic protease", "experiment": "Bz-Arg-[1-13C]Ala breath test", "conditions": "rats", "protocol": "The pharmacological effect of camostat mesylate is the inhibition of pancreatic protease. Bz-Arg-[1-^13C]Ala (see Production Example 3) which is a substrate for pancreatic protease is provided as a pharmacological effect diagnostic reagent and a screening reagent. […] The results of the Bz-Arg-[1-^13C]Ala breath test were as follows: in the both groups, the Δ^13C increased linearly until at the time point of 15 minutes after the administration; twenty minutes after the administration, the Δ^13C reached 41.29±7.49‰ in the control group (n=3), while the Δ^13C reached 27.64±4.86‰ in the administration group (n=3); thus, the Δ^13C decreased in the administration group (FIG. 7). From the results, it was confirmed that the function of the target enzyme for camostat mesylate was inhibited under the camostat mesylate administration conditions of the present example."}, "DOPA decarboxylase": {"molecular_target": "T1, DOPA decarboxylase (Rattus norvegicus, UniProt P14173)", "T1 construct": "from tissue; host or cells: living rat (whole-animal breath test)", "T1 sequence (P14173 1-480)": "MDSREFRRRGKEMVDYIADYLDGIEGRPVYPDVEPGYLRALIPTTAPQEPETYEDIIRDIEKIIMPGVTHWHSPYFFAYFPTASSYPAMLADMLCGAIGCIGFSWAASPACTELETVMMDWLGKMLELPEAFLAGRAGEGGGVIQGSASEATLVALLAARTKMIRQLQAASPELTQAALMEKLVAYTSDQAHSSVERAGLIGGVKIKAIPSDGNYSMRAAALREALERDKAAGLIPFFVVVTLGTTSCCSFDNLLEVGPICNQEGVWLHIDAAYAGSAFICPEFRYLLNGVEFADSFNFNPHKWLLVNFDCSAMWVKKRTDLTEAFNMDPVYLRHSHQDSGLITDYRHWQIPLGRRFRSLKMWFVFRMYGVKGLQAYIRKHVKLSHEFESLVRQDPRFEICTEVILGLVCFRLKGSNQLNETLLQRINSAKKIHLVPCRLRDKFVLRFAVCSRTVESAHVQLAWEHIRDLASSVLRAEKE", "experiment": "[1-13C]DOPA breath test", "conditions": "rats", "protocol": "The pharmacological effect of benserazide is the inhibition of DOPA decarboxylase. [1-^13C]DOPA (see Production Example 1) which is a substrate for DOPA decarboxylase is provided as a pharmacological effect diagnostic reagent and a screening reagent. Comparison was made in the [1-^13C]DOPA breath test on rats which were administered intraperitoneally with benserazide hydrochloride (Sigma) at a dose of 50 mg/kg three times (i.e., in the morning and evening of the day before the [1-^13C]DOPA breath test and 30 minutes before the breath test was started on the day of the test) (administration group) and rats without administration (control group).\nThe rats of the administration group and the control group which had been fasted overnight were fixed supinely under anesthesia. […] When the CO2 concentration stabilized, [1-^13C]DOPA was administered at a dose of 50 mg/kg through the femoral vein.\nOutput data from the ^13CO2 analyzer were AD-converted and input to a personal computer (Apple Power Macintosh 8500). […]\nΔ^13C (‰) was calculated from the ^13C level in the exhaled CO2 at each time point (^13Ctmin) and the ^13C level in the standard CO2 (^13Cstd) according to the following equation: Δ^13C(‰)=[(^13Ctmin−^13C0min)/^13Cstd]×1000"}, "α-glucosidase": {"test_system": "α-glucosidase", "experiment": "Glc-[U-13C]Glc breath test", "conditions": "rats, n=2", "text": "The pharmacological effect of acarbose is the inhibition of α-glucosidase. Glc-[U-^13C]Glc (see Production Example 2) which is a substrate for α-glucosidase is provided as a pharmacological effect diagnostic reagent and a screening reagent."}}, "note": "Counter-ions that a name gives are not always drawn.", "data": [{"smiles": "CN(C)C(=O)COC(=O)Cc1ccc(OC(=O)c2ccc(NC(=N)N)cc2)cc1", "note": "[camostat mesylate]", "values": [{"measurement": "function of the target enzyme", "setting": "pancreatic protease; camostat mesylate 20 mg/kg oral", "result": "inhibited"}, {"measurement": "Δ13C twenty minutes after the administration", "setting": "pancreatic protease; camostat mesylate 20 mg/kg oral concurrently with Bz-Arg-[1-13C]Ala 12.2 mg/kg oral, n=3", "result": "27.64±4.86 ‰"}]}, {"smiles": "NC(CO)C(=O)NNCc1ccc(O)c(O)c1O", "note": "(stereo not shown) [benserazide, benserazide hydrochloride]", "values": [{"measurement": "inhibition at 50 mg/kg", "setting": "DOPA decarboxylase; rat, ip, benserazide 50 mg/kg i.p. three times, [1-13C]DOPA breath test, read-out: inhibition of the function of the target enzyme", "result": "~100", "unit": "%"}, {"measurement": "Δ13C (degree of increase of the 13C level in exhaled CO2)", "setting": "DOPA decarboxylase; benserazide hydrochloride 50 mg/kg i.p. three times, [1-13C]DOPA 50 mg/kg femoral vein, 20 minutes after the administration", "result": "about 5 ‰"}]}, {"smiles": "C[C@H]1O[C@H](O[C@H]2[C@H](O)[C@@H](O)[C@@H](O[C@H]3[C@H](O)[C@@H](O)C(O)O[C@@H]3CO)O[C@@H]2CO)[C@H](O)[C@@H](O)[C@@H]1N[C@H]1C=C(CO)[C@@H](O)[C@H](O)[C@H]1O", "note": "(stereo partly shown) [acarbose]", "values": [{"measurement": "Δ13C in 20 minutes", "setting": "α-glucosidase; acarbose 2 mg/kg oral concurrently with Glc-[U-13C]Glc 25 mg/kg oral", "result": "37.06 ±0.16 ‰"}, {"measurement": "Δ13C in 20 minutes", "setting": "α-glucosidase; acarbose 4 mg/kg oral concurrently with Glc-[U-13C]Glc 25 mg/kg oral", "result": "26.01 ±0.38 ‰"}, {"measurement": "Δ13C in 20 minutes", "setting": "α-glucosidase; acarbose 10 mg/kg oral concurrently with Glc-[U-13C]Glc 25 mg/kg oral", "result": "9.86±0.66 ‰"}]}]}
